# According to paper PMC8453635, “Piperidine Azasugars Bearing Lipophilic Chains: Stereoselective Synthesis and Biological Activity as Inhibitors of Glucocerebrosidase (GCase)” (The Journal of Organic Chemistry, 2021):
# What was measured:
# α-glucosidase = target: T1, α-glucosidase (Homo sapiens, UniProt P10253); assay: Human lysosomal glycosidase selectivity screening (lymphocyte homogenate); assay type: biochemical; details: 1 mM, read-out: percentage of inhibition, α-Glu
# T1 construct: α-glucosidase from lymphocytes isolated from healthy donors; from tissue; host or cells: lymphocytes from healthy donors' blood, sonicated homogenate
# Experimental: In order to avoid undesired inhibitory side effects of a potential new drug, it has to be selective for a given target. The selectivity of the newly synthesized compounds 14, 15, and 33·HCl toward GCase was then investigated, evaluating their inhibition at 1 mM concentration toward six other lysosomal glycosidases (namely, α-and β-mannosidases, α- and β-galactosidases, α-fucosidase, and α-glucosidase) in cell homogenates (leucocytes or lymphocytes) isolated from healthy donors. […] Indeed, only moderate inhibitory activity (ca. 50%) was found toward human β-galactosidase for both piperidines 14 and 15, while negligible inhibitory activity was detected in all other cases. […]
# α-Mannosidase activity was measured in a flat-bottomed 96-well plate. […] The reaction was stopped by addition of sodium carbonate (200 μL; 0.5M, pH 10.7) containing Triton X -100 (0.0025 %), and the fluorescence 4 -methylumbelliferone release d by α-mannosidase activity was measured in SpectraMax M2 microplate reader ( λex=365 nm, λem=435 nm; Molecular Devices). […]
# β-Mannosidase activity was measured in a flat -bottomed 96 -well plate. […] The reaction was stopped by addition of sodium carbonate (200 μL; 0.5M, pH 10.7) containing Triton X -100 (0.0025 %), and the fluorescence of 4 -methylumbelliferone released by β-mannosidase activity was meas ured in SpectraMax M2 microplate reader ( λex=365 nm, λem=435 nm; […]
# [1] = system: human fibroblasts wild type; assay: MTT cytotoxicity test; assay type: cell-based; details: prolonged incubation at 100 and 50 μM
# Experimental: The MTT test was carried out using the human fibroblasts wild type at different concentrations of compound 33·HCl. Fibroblasts were grown in the presence of Dulbecco’s modified Eagle’s medium supplemented with 10% fetal bovine serum (FBS), 1% glutamine, and 1% penicillin–streptomycin, at 37 °C in controlled atmosphere with 5% CO2. For the experiments, cells were seeded at a density of 20,000 cells per well in 24-well plates and grown for 24 h (or 48 h) before adding the compound. The compound was dissolved in water; then, aliquots of these were diluted in the growth medium. To preserve sterility of solutions, these were filtered with 0.22 μm filters before adding to the dishes containing fibroblasts. Then, cells were incubated at 37 °C in 5% CO2 for 24 h (or 48 h). After this time, the media were replaced with medium containing 0.5 mg/mL of 3-(4,5-dimethylthiazol-2-yl)-2,5-diphenyltetrazolium bromide (MTT); the cells were incubated for an additional 1 h at 37 °C in 5% CO2. Finally, the number of viable cells was quantified by the estimation of their dehydrogenase activity, which reduces MTT to water-insoluble formazan. […] The quantitation was carried out measuring the absorbance of samples at 570 nm with the iMark microplate absorbance reader (BIO RAD) in a 96-well format. […]
# 33.HCl at different concentrations. After this time, the viability of cells was evaluated using MMT assay. […]
Structure (SMILES),inhibition at 1000 µM (α-glucosidase) [%],cytotoxicity (MTT test) [1]
"CCCCCCCC[C@H]1[C@@H](O)[C@H](O)[C@H](O)CN1CCCCCCCC [compound 14, (2S,3R,4R,5R)-1,2-Dioctylpiperidine-3,4,5-triol]",18,
"CCCCCCCC[C@@H]1[C@@H](O)[C@H](O)[C@H](O)CN1C(CCCCCCC)CCCCCCC.Cl [compound 33·HCl, (2R,3R,4R,5R)-2-Octyl-1-(pentadecan-8-yl)-piperidine-3,4,5-triol Hydrochloride]",,remarkable cytotoxicity
